Measurements from PubChem BioAssay AID1259407 (Chemical Carcinogenesis Research Information System (CCRIS), 2018).
Activity calls are given as the source filed them. How the calls were made is not given here.

Tested on: CCRIS mutagenicity, Ames/micronucleus/aberration tests
Assay: CCRIS mutagenicity studies
[1] = Test System: AMES SALMONELLA TYPHIMURIUM, Strain/Indicator: TA100, Metabolic Activation: RAT, LIVER, S-9, AROCLOR 1254, Method: STANDARD PLATE
[2] = Test System: AMES SALMONELLA TYPHIMURIUM, Strain/Indicator: TA98, Metabolic Activation: NONE, Method: STANDARD PLATE
[3] = Test System: AMES SALMONELLA TYPHIMURIUM, Strain/Indicator: TA98, Metabolic Activation: RAT, LIVER, S-9, AROCLOR 1254, Method: STANDARD PLATE
[4] = Test System: AMES SALMONELLA TYPHIMURIUM, Strain/Indicator: TA100, Metabolic Activation: NONE, Method: STANDARD PLATE

SMILES: Cc1ccc2cc3c(ccc4ccccc43)c3c2c1CC3
- mutagenic call (End Point: In vivo mutagenicity, Test System: Lung, Species: Rat, Strain/Sex: Big Blue/male, Route: Intraperitoneal): active; positive (11-fold increase in mutant frequency and an increase in transversion t
- mutagenic call (Test System: AMES SALMONELLA TYPHIMURIUM, Strain/Indicator: TA98, Metabolic Activation: RAT, BLADDER, S-9, PCB, Method: FLUCTUATION TEST): inactive; negative
- mutagenic call (Test System: AMES SALMONELLA TYPHIMURIUM, Strain/Indicator: TA98, Metabolic Activation: RAT, LIVER, S-9, PHENOBARBITAL, Method: STANDARD PLATE): active; positive
- mutagenic call (Test System: AMES SALMONELLA TYPHIMURIUM, Strain/Indicator: TA100, Metabolic Activation: MOUSE, LIVER, MICROSOMES, BENZO[E]PYRENE AND TCDD, Method: STANDARD PLATE): active; positive
- mutagenic call (Test System: AMES SALMONELLA TYPHIMURIUM, Strain/Indicator: TA100, Metabolic Activation: RAT, BLADDER, S-9, PCB, Method: FLUCTUATION TEST): active; positive
- mutagenic call [1]: active; positive
- mutagenic call (Test System: AMES SALMONELLA TYPHIMURIUM, Strain/Indicator: TA1535, Metabolic Activation: RAT, LIVER, S-9, AROCLOR 1254, Method: STANDARD PLATE): active; positive
- mutagenic call (Test System: AMES SALMONELLA TYPHIMURIUM, Strain/Indicator: TA1537, Metabolic Activation: RAT, LIVER, S-9, AROCLOR 1254, Method: STANDARD PLATE): active; positive
- mutagenic call (Test System: AMES SALMONELLA TYPHIMURIUM, Strain/Indicator: TA1538, Metabolic Activation: MOUSE, LIVER, S-9, PHENOBARBITAL, Method: PREINCUBATION): active; positive
- mutagenic call (Test System: AMES SALMONELLA TYPHIMURIUM, Strain/Indicator: TA1538, Metabolic Activation: RAT, LIVER, S-9, AROCLOR 1254, Method: STANDARD PLATE): active; positive
- mutagenic call (Test System: AMES SALMONELLA TYPHIMURIUM, Strain/Indicator: TA1538, Metabolic Activation: RAT, LIVER, S-9, PHENOBARBITAL, Method: STANDARD PLATE): active; positive
- mutagenic call (Test System: Ames Salmonella typhimurium, Strain/Indicator: TA98, Metabolic Activation: None, Method: Standard plate): active; positive (animals administered an onion (1% or 5%) diet for 1 month before the m
- mutagenic call (Test System: Ames Salmonella typhimurium, Strain/Indicator: TA98, Metabolic Activation: S-9, Method: Standard plate): active; positive (animals administered an onion (1% or 5%) diet for 1 month before the m
- mutagenic call (Test System: Ames Salmonella typhimurium, Strain/Indicator: TA100, Metabolic Activation: None, Method: Standard plate): active; positive (animals administered an onion (1% or 5%) diet for 1 month before the m
- mutagenic call (Test System: Ames Salmonella typhimurium, Strain/Indicator: TA100, Metabolic Activation: S-9, Method: Standard plate): active; positive (animals administered an onion (1% or 5%) diet for 1 month before the m
- mutagenic call (Test System: CHINESE HAMSTER OVARY, Strain/Indicator: CHO-K1-BH4 (HGPRT), Metabolic Activation: RAT, LIVER, S-9, AROCLOR, Method: SUSPENSION/PLATE): active; positive
- mutagenic call (Test System: CHINESE HAMSTER V-79, Strain/Indicator: V-79/6-THIOGUANINE, Metabolic Activation: RAT, LIVER, S-9, PHENOBARBITAL, Method: STANDARD PLATE): active; positive
- mutagenic call (Test System: CHINESE HAMSTER V-79, Strain/Indicator: V-79/8-AZAGUANINE, Metabolic Activation: CELL-MEDIATED, Method: STANDARD PLATE): active; positive
- mutagenic call (Test System: E. COLI, Strain/Indicator: WP2 UVRA, Metabolic Activation: HAMSTER, LIVER, S-9, AROCLOR 1254, Method: STANDARD PLATE): inactive; negative
- mutagenic call (Test System: E. COLI, Strain/Indicator: WP2 UVRA, Metabolic Activation: HAMSTER, LIVER, S-9, Method: STANDARD PLATE): inactive; negative
- mutagenic call (Test System: E. COLI, Strain/Indicator: WP2 UVRA, Metabolic Activation: MOUSE, LIVER, S-9, AROCLOR 1254, Method: STANDARD PLATE): inactive; negative
- mutagenic call (Test System: E. COLI, Strain/Indicator: WP2 UVRA, Metabolic Activation: MOUSE, LIVER, S-9, Method: STANDARD PLATE): inactive; negative
- mutagenic call (Test System: E. COLI, Strain/Indicator: WP2 UVRA, Metabolic Activation: NONE, Method: STANDARD PLATE): inactive; negative
- mutagenic call (Test System: E. COLI, Strain/Indicator: WP2 UVRA, Metabolic Activation: RAT, LIVER, S-9, AROCLOR 1254, Method: STANDARD PLATE): inactive; negative
- mutagenic call (Test System: E. COLI, Strain/Indicator: WP2 UVRA, Metabolic Activation: RAT, LIVER, S-9, Method: STANDARD PLATE): inactive; negative
- mutagenic call (Test System: UDS HUMAN FIBROBLASTS, Strain/Indicator: THY INCORP (NON-S-PHASE), Metabolic Activation: NONE, Method: LIQUID SCINTILLATION COUNTING): active; positive
- mutagenic call (Test System: UDS RODENT HEPATOCYTES, Strain/Indicator: THY INCORP (NON-S-PHASE), Method: LIQUID SCINTILLATION COUNTING): active; positive
- mutagenic call (Test System: UDS RODENT PRIMARY CELLS, Strain/Indicator: THY INCORP (NON-S-PHASE), Metabolic Activation: NONE, Method: AUTORADIOGRAPHY): active; positive

SMILES: O/N=C/C=N/O
- mutagenic call (Test System: AMES SALMONELLA TYPHIMURIUM, Strain/Indicator: TA102, Metabolic Activation: RAT, LIVER, S-9, PHENOBARBITAL AND 5,6-BENZOFLAVONE, Method: STANDARD PLATE): inactive; negative
- mutagenic call (Test System: AMES SALMONELLA TYPHIMURIUM, Strain/Indicator: TA2638, Metabolic Activation: RAT, LIVER, S-9, PHENOBARBITAL AND 5,6-BENZOFLAVONE, Method: STANDARD PLATE): inactive; negative
- mutagenic call (Test System: E. COLI, Strain/Indicator: WP2 (PKM101), Metabolic Activation: RAT, LIVER, S-9, PHENOBARBITAL AND 5,6-BENZOFLAVONE, Method: STANDARD PLATE): inactive; negative
- mutagenic call (Test System: E. COLI, Strain/Indicator: WP2 UVRA (PKM101), Metabolic Activation: RAT, LIVER, S-9, PHENOBARBITAL AND 5,6-BENZOFLAVONE, Method: STANDARD PLATE): active; positive

SMILES: ClC(Cl)=C(Cl)c1ccc(Cl)c(Cl)c1Cl
- mutagenic call [2]: inactive; negative
- mutagenic call [3]: inactive; negative
- mutagenic call [4]: inactive; negative
- mutagenic call [1]: inactive; negative

SMILES: CC(=O)c1cccn1[N+](=O)[O-]
- mutagenic call [2]: active; positive
- mutagenic call [3]: active; positive
- mutagenic call [4]: active; positive
- mutagenic call [1]: active; positive

SMILES: C/C(C=O)=C(/Cl)C(=O)O
- mutagenic call (Test System: AMES SALMONELLA TYPHIMURIUM, Strain/Indicator: TA98, Metabolic Activation: NONE, Method: PREINCUBATION): active; positive
- mutagenic call (Test System: AMES SALMONELLA TYPHIMURIUM, Strain/Indicator: TA100, Metabolic Activation: NONE, Method: PREINCUBATION): active; positive
- mutagenic call (Test System: AMES SALMONELLA TYPHIMURIUM, Strain/Indicator: TA104, Metabolic Activation: NONE, Method: PREINCUBATION): active; positive

SMILES: C/C=C(\Cl)C1=C(Cl)C(=O)[C@]23C[C@H]2C(C)(C)O[C@]3(O)C1=O
- mutagenic call (Test System: AMES SALMONELLA TYPHIMURIUM, Strain/Indicator: TA97, Metabolic Activation: NONE): inactive; negative
- mutagenic call (Test System: AMES SALMONELLA TYPHIMURIUM, Strain/Indicator: TA98, Metabolic Activation: NONE): inactive; negative
- mutagenic call (Test System: AMES SALMONELLA TYPHIMURIUM, Strain/Indicator: TA100, Metabolic Activation: NONE): active; positive
- mutagenic call (Test System: AMES SALMONELLA TYPHIMURIUM, Strain/Indicator: TA102, Metabolic Activation: NONE): active; positive
